Test results reported in patent EP2997966A1, “Naphthyl Sulfonamide Pyrrolidine Derivatives as KEAP-1 Modulators for the Treatment of Diabetes, Obesity, Dyslipidemia and Related Disorders” (SANOFI, priority 2014, dated 2016).
Where two headings read alike, the source gives them in different places.

Biological target: T1, human Keap1 kelch domain (amino acids Ala321-Thr609) (Homo sapiens, UniProt Q14145)
T1 construct: human Keap1 kelch domain (amino acids Ala321-Thr609)
Test: Keap1-Nrf2 peptide binding assay (fluorescence polarisation)
Conditions: binding to fluorescently labeled human Nrf2 peptide, 20 nM Keap1 kelch domain, 50 nM peptide
Experimental: Keap1-Nrf2 peptide binding assay
Two microliters of test compound in reaction buffer (phosphate-buffered saline, 2 mM DL-dithiothreitol, 0.015 % (v/v) Brij-35) containing 6 % (v/v) DMSO were mixed with two microliters of the Keap1 kelch domain in reaction buffer in a black 384-well small volume microtiter plate and incubated at ambient temperature for 15 minutes. Thereafter, two microliters were added of the fluorescently labeled Nrf2 peptide in reaction buffer, and the mixture was incubated for a further 30 minutes at ambient temperature. Final concentrations of the Keap1 kelch domain and the fluorescently labeled Nrf2 peptide were 20 nM and 50 nM, respectively.
Fluorescence polarization (FP) was measured at excitation and emission wavelengths of 635 nm and 660 nm, respectively. Positive controls for binding (two microliters of reaction buffer containing 6 % (v/v) DMSO instead of test compound in the same buffer) and negative controls (as positive controls, but without Keap1 kelch domain) were included on each microtiter plate.

T1 sequence (Q14145 321-609): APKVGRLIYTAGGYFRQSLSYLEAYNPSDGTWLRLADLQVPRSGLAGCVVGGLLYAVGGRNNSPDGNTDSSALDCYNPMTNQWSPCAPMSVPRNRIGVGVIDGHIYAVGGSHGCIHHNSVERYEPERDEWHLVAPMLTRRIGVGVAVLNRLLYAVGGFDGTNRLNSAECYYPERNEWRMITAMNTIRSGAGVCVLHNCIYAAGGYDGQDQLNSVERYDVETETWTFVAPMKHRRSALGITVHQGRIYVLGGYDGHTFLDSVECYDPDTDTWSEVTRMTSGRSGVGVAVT

| Compound | IC50 (read-out: IC50) | IC50 |
| --- | --- | --- |
| Cc1c(S(=O)(=O)Nc2ccc(N3CC[C@@H](C(=O)O)C3)c3ncccc23)sc2cccc(F)c12 [Example 70, (3R)-1-[5-[(4-fluoro-3-methyl-benzothiophen-2-yl)sulfonylamino]-8-quinolyl]pyrrolidine-3-carboxylic acid] | 0.3 µM | – |
| Cc1cc(C)c(C)c(S(=O)(=O)Nc2ccc(N3CCC(C)(C(=O)O)C3)c3ccccc23)c1C (stereo not shown) [Example 9, 3-methyl-1-[4-[(2,3,5,6-tetramethylphenyl)sulfonylamino]-1-naphthyl]pyrrolidine-3-carboxylic acid] | 0.8 µM | – |
| O=C(O)[C@@H]1CCN(c2ccc(NS(=O)(=O)c3cc(F)cc(F)c3Cl)c3ccccc23)C1 [Example 46, (3R)-1-[4-[(2-chloro-3,5-difluorophenyl)sulfonylamino]-1-naphthyl]pyrrolidine-3-carboxylic acid] | – | 7.4 µM |
| Cc1nn(-c2ccccc2)c(C)c1S(=O)(=O)Nc1ccc(N2CC[C@@H](C(=O)O)C2)c2ccccc12 [Example 42, (3R)-1-[4-[(3,5-dimethyl-1-phenyl-pyrazol-4-yl)sulfonylamino]-1-naphthyl]pyrrolidine-3-carboxylic acid] | – | 3 µM |
| O=C(O)[C@H]1CCN(c2ccc(NS(=O)(=O)c3ccc(Cl)c(C(F)(F)F)c3)c3ccccc23)C1 [Example 23, (3S)-1-[4-[[4-chloro-3-(trifluoromethyl)phenyl]sulfonylamino]-1-naphthyl]pyrrolidine-3-carboxylic acid] | – | 8.5 µM |
| Cc1c(S(=O)(=O)Nc2ccc(N3CC[C@@H](C(=O)O)C3)c3ccccc23)cnn1CC(C)C [Example 49, (3R)-1-[4-[(1-isobutyl-5-methyl-pyrazol-4-yl)sulfonylamino]-1-naphthyl]pyrrolidine-3-carboxylic acid] | – | 2.9 µM |
| CCCn1ncc(S(=O)(=O)Nc2ccc(N3CC[C@@H](C(=O)O)C3)c3ccccc23)c1C [Example 54, (3R)-1-[4-[(5-methyl-1-propyl-pyrazol-4-yl)sulfonylamino]-1-naphthyl]pyrrolidine-3-carboxylic acid] | – | 1.8 µM |
| Cc1ccc(Cl)cc1S(=O)(=O)Nc1ccc(N2CC[C@H](C(=O)O)C2)c2ccccc12 [Example 26, (3S)-1-[4-[(5-chloro-2-methylphenyl)sulfonylamino]-1-naphthyl]pyrrolidine-3-carboxylic acid] | – | 8.1 µM |
| Cc1cc(C)c(C)c(S(=O)(=O)Nc2ccc(C3CCCC3C(=O)O)c3ccccc23)c1C (stereo not shown) [Example 1, 2-[4-[(2,3,5,6-tetramethylphenyl)sulfonylamino]-1-naphthyl]cyclopentanecarboxylic acid] | 3.1 µM | – |
| CCCCCCCCn1nc(C)c(S(=O)(=O)Nc2ccc(N3CC[C@@H](C(=O)O)C3)c3ncccc23)c1C [Example 73] | 1.6 µM | – |
| Cc1c(S(=O)(=O)Nc2ccc(N3CC[C@@H](C(=O)O)C3)c3ncccc23)sc2ccc(Cl)cc12 [Example 72, (3R)-1-[5-[(5-chloro-3-methyl-benzothiophen-2-yl)sulfonylamino]-8-quinolyl]pyrrolidine-3-carboxylic acid] | 0.4 µM | – |
| CCCCn1cc(S(=O)(=O)Nc2ccc(N3CC[C@H](C(=O)O)C3)c3ccccc23)c(C)n1 [Example 11, (3S)-1-[4-[(1-butyl-3-methyl-pyrazol-4-yl)sulfonylamino]-1-naphthyl]pyrrolidine-3-carboxylic acid] | 5 µM | – |
| Cc1nn(-c2ccccc2)c(C)c1S(=O)(=O)Nc1ccc(N2CC[C@H](C(=O)O)C2)c2ccccc12 [Example 25, (3S)-1-[4-[(3,5-dimethyl-1-phenyl-pyrazol-4-yl)sulfonylamino]-1-naphthyl]pyrrolidine-3-carboxylic acid] | – | 4.1 µM |
| O=C(O)[C@@H]1CCN(c2ccc(NS(=O)(=O)c3cc(F)c(F)cc3Cl)c3ccccc23)C1 [Example 45, (3R)-1-[4-[(2-chloro-4,5-difluorophenyl)sulfonylamino]-1-naphthyl]pyrrolidine-3-carboxylic acid] | – | 4.5 µM |
| O=C(O)[C@H]1CCN(c2ccc(NS(=O)(=O)c3cc(Cl)ccc3Cl)c3ccccc23)C1 [Example 28, (3S)-1-[4-[(2,5-dichlorophenyl)sulfonylamino]-1-naphthyl]pyrrolidine-3-carboxylic acid] | – | 5.8 µM |
| Cc1nn(C)c(C)c1S(=O)(=O)Nc1ccc(N2CC[C@H](C(=O)O)C2)c2ccccc12 [Example 22, (3S)-1-[4-[(1,3,5-trimethylpyrazol-4-yl)sulfonylamino]-1-naphthyl]pyrrolidine-3-carboxylic acid] | – | 4.5 µM |
| Cc1c(S(=O)(=O)Nc2ccc(N3CC[C@@H](C(=O)O)C3)c3ncccc23)c2ccccc2n1C [Example 71, (3R)-1-[5-[(1,2-dimethylindol-3-yl)sulfonylamino]-8-quinolyl]pyrrolidine-3-carboxylic acid] | – | 1.1 µM |
| Cc1nc(C)c(S(=O)(=O)Nc2ccc(N3CC[C@@H](C(=O)O)C3)c3ccccc23)s1 [Example 41, (3R)-1-[4-[(2,4-dimethylthiazol-5-yl)sulfonylamino]-1-naphthyl]pyrrolidine-3-carboxylic acid] | – | 1.6 µM |

Further lines, with some results ahead:

| IC50 (read-out: IC50) | Compound | IC50 |
| --- | --- | --- |
| 0.5 µM | Cc1cc(C)c(C)c(S(=O)(=O)Nc2ccc(N3CCCC(C(=O)O)C3)c3ccccc23)c1C (stereo not shown) [Example 5, 1-[4-[(2,3,5,6-tetramethylphenyl)sulfonylamino]-1-naphthyl]piperidine-3-carboxylic acid; 2,2,2-trifluoroacetic acid] | – |
| 0.27 µM | Cc1cc(C)c(C)c(S(=O)(=O)Nc2ccc(N3CCC[C@@H](C(=O)O)C3)c3ccccc23)c1C [Example 58, (3R)-1-[4-[(2,3,5,6-tetramethylphenyl)sulfonylamino]-1-naphthyl]piperidine-3-carboxylic acid] | – |
| 0.13 µM | Cc1c(S(=O)(=O)Nc2ccc(N3CC[C@@H](C(=O)O)C3)c3ccccc23)sc2cccc(F)c12 [Example 60, (3R)-1-[4-[(4-fluoro-3-methyl-benzothiophen-2-yl)sulfonylamino]-1-naphthyl]pyrrolidine-3-carboxylic acid] | – |
| 4.1 µM | Cc1c(S(=O)(=O)Nc2ccc(N3CC[C@H](C(=O)O)C3)c3ccccc23)cnn1C1CCCC1 [Example 30, (3S)-1-[4-[(1-cyclopentyl-5-methyl-pyrazol-4-yl)sulfonylamino]-1-naphthyl]pyrrolidine-3-carboxylic acid] | – |
| 5 µM | O=C(O)[C@@H]1CCN(c2ccc(NS(=O)(=O)c3ccc(Cl)c(C(F)(F)F)c3)c3ccccc23)C1 [Example 40, (3R)-1-[4-[[4-chloro-3-(trifluoromethyl)phenyl]sulfonylamino]-1-naphthyl]pyrrolidine-3-carboxylic acid] | – |
| 1.7 µM | O=C(O)[C@@H]1CCN(c2ccc(NS(=O)(=O)c3cc(Cl)cc(Cl)c3)c3ccccc23)C1 [Example 33, (3R)-1-[4-[(3,5-dichlorophenyl)sulfonylamino]-1-naphthyl]pyrrolidine-3-carboxylic acid] | – |
| 1.2 µM | Cc1nn(C)c(Cl)c1S(=O)(=O)Nc1ccc(N2CCC(C(=O)O)C2)c2ccccc12 (stereo not shown) [Example 4, 1-[4-[(5-chloro-1,3-dimethyl-pyrazol-4-yl)sulfonylamino]-1-naphthyl]pyrrolidine-3-carboxylic acid] | – |
| 1.3 µM | O=C(O)[C@@H]1CCN(c2ccc(NS(=O)(=O)c3ccc(Cl)cc3Cl)c3ccccc23)C1 [Example 12, (3R)-1-[4-[(2,4-dichlorophenyl)sulfonylamino]-1-naphthyl]pyrrolidine-3-carboxylic acid] | – |
| 2.5 µM | COc1ccc(F)c(S(=O)(=O)Nc2ccc(N3CC[C@@H](C(=O)O)C3)c3ccccc23)c1 [Example 44, (3R)-1-[4-[(2-fluoro-5-methoxyphenyl)sulfonylamino]-1-naphthyl]pyrrolidine-3-carboxylic acid] | – |
| 7 µM | Cc1c(S(=O)(=O)Nc2ccc(N3CC[C@H](C(=O)O)C3)c3ccccc23)cnn1CC(C)C [Example 29, (3S)-1-[4-[(1-isobutyl-5-methyl-pyrazol-4-yl)sulfonylamino]-1-naphthyl]pyrrolidine-3-carboxylic acid] | – |
| 0.8 µM | Cc1c(Cl)cccc1S(=O)(=O)Nc1ccc(N2CC[C@@H](C(=O)O)C2)c2ccccc12 [Example 32, (3R)-1-[4-[(3-chloro-2-methylphenyl)sulfonylamino]-1-naphthyl]pyrrolidine-3-carboxylic acid] | – |
| 2.3 µM | CCCCn1cc(S(=O)(=O)Nc2ccc(N3CC[C@@H](C(=O)O)C3)c3ccccc23)c(C)n1 [Example 13, (3R)-1-[4-[(1-butyl-3-methyl-pyrazol-4-yl)sulfonylamino]-1-naphthyl]pyrrolidine-3-carboxylic acid] | – |
| 0.6 µM | O=C(O)[C@@H]1CCN(c2ccc(NS(=O)(=O)c3ccc4c(c3)CCCC4)c3ccccc23)C1 [Example 77, (3R)-1-[4-(tetralin-6-ylsulfonylamino)-1-naphthyl]pyrrolidine-3-carboxylic acid] | – |
| 6.2 µM | O=C(O)[C@H]1CCN(c2ccc(NS(=O)(=O)c3ccc(Cl)cc3Cl)c3ccccc23)C1 [Example 19, (3S)-1-[4-[(2,4-dichlorophenyl)sulfonylamino]-1-naphthyl]pyrrolidine-3-carboxylic acid] | – |
| 9 µM | O=C(O)[C@H]1CCN(c2ccc(NS(=O)(=O)c3cc(Cl)sc3Cl)c3ccccc23)C1 [Example 18, (3S)-1-[4-[(2,5-dichloro-3-thienyl)sulfonylamino]-1-naphthyl]pyrrolidine-3-carboxylic acid] | – |
| 1.8 µM | O=C(O)[C@@H]1CCN(c2ccc(NS(=O)(=O)c3cccc(Cl)c3Cl)c3ccccc23)C1 [Example 35, (3R)-1-[4-[(2,3-dichlorophenyl)sulfonylamino]-1-naphthyl]pyrrolidine-3-carboxylic acid] | – |
